{"source": "ChEMBL document CHEMBL1137069", "about": "“Design, synthesis and anti-microbial activity of 1H-pyrazole carboxylates” (2004)", "format_in_all_cases": "functional", "key": {"Enterococcus faecalis [1]": {"system": "Enterococcus faecalis", "test": "Antibacterial activity against […] was measured as area of inhibition zone at 0.1 mg/mL concentration"}, "[2]": {"test": "Antibacterial activity against Escherichia coli was measured as area of inhibition zone at 0.1 mg/mL concentration"}, "Fusarium oxysporum [3]": {"system": "Fusarium oxysporum", "test": "Antifungal activity against Fusarium oxysporum was measured as mycelial growth at 0.5 mg/mL concentration"}, "Fusarium oxysporum [4]": {"system": "Fusarium oxysporum", "test": "Antifungal activity against Fusarium oxysporum was determined at 0.5 mg/mL concentration"}, "Pseudomonas aeruginosa [5]": {"system": "Pseudomonas aeruginosa", "test": "Antibacterial activity against Pseudomonas aeruginosa was determined at 0.5 mg/mL concentration"}, "Staphylococcus aureus [6]": {"system": "Staphylococcus aureus", "test": "Antibacterial activity against Staphylococcus aureus was determined at 0.5 mg/mL concentration"}, "Thanatephorus cucumeris [7]": {"system": "Thanatephorus cucumeris", "test": "Antifungal activity against Rhizoctonia solani was determined at 0.5 mg/mL concentration"}, "Escherichia coli [8]": {"system": "Escherichia coli", "test": "Antibacterial activity against Escherichia coli was determined at 0.5 mg/mL concentration"}, "Pseudomonas aeruginosa [9]": {"system": "Pseudomonas aeruginosa", "test": "Antibacterial activity against Pseudomonas aeruginosa was determined at 0.1 mg/mL concentration"}, "Pseudomonas aeruginosa [10]": {"system": "Pseudomonas aeruginosa", "test": "Antibacterial activity against Pseudomonas aeruginosa was measured as area of inhibition zone at 0.1 mg/mL concentration"}, "Staphylococcus aureus [11]": {"system": "Staphylococcus aureus", "test": "Antibacterial activity against Staphylococcus aureus was measured as area of inhibition zone at 0.1 mg/mL concentration"}, "[12]": {"test": "Antifungal activity against Bipolaris oryzae was determined at 0.1 mg/mL concentration"}, "Alternaria alternata [13]": {"system": "Alternaria alternata", "test": "Antifungal activity against Alternaria alternata was determined at 0.1 mg/mL concentration"}, "Thanatephorus cucumeris [14]": {"system": "Thanatephorus cucumeris", "test": "Antifungal activity against Rhizoctonia solani was determined at 0.1 mg/mL concentration"}, "Escherichia coli [15]": {"system": "Escherichia coli", "test": "Antibacterial activity against Escherichia coli was determined at 0.1 mg/mL concentration"}, "Staphylococcus aureus [16]": {"system": "Staphylococcus aureus", "test": "Antibacterial activity against Staphylococcus aureus was determined at 0.1 mg/mL concentration"}, "Alternaria alternata [17]": {"system": "Alternaria alternata", "test": "Antifungal activity against Alternaria alternata was measured as mycelial growth at 0.5 mg/mL concentration"}, "[18]": {"test": "Antifungal activity against Bipolaris oryzae was measured as mycelial growth at 0.5 mg/mL concentration"}, "Thanatephorus cucumeris [19]": {"system": "Thanatephorus cucumeris", "test": "Antifungal activity against Rhizoctonia solani was measured as mycelial growth at 0.5 mg/mL concentration"}, "Curvularia lunata [20]": {"system": "Curvularia lunata", "test": "Antifungal activity against Curvularia lunata was measured as mycelial growth at 0.1 mg/mL concentration"}, "[21]": {"test": "Antifungal activity against Bipolaris oryzae was measured as mycelial growth at 0.1 mg/mL concentration"}, "Curvularia lunata [22]": {"system": "Curvularia lunata", "test": "Antifungal activity against Curvularia lunata was determined at 0.1 mg/mL concentration"}, "Alternaria alternata [23]": {"system": "Alternaria alternata", "test": "Antifungal activity against Alternaria alternata was measured as mycelial growth at 0.1 mg/mL concentration"}, "Thanatephorus cucumeris [24]": {"system": "Thanatephorus cucumeris", "test": "Antifungal activity against Rhizoctonia solani was measured as mycelial growth at 0.1 mg/mL concentration"}, "[25]": {"test": "Antifungal activity against Bipolaris oryzae was determined at 0.5 mg/mL concentration"}, "Curvularia lunata [26]": {"system": "Curvularia lunata", "test": "Antifungal activity against Curvularia lunata was determined at 0.5 mg/mL concentration"}, "Fusarium oxysporum [27]": {"system": "Fusarium oxysporum", "test": "Antifungal activity against Fusarium oxysporum was measured as mycelial growth at 0.1 mg/mL concentration"}, "Fusarium oxysporum [28]": {"system": "Fusarium oxysporum", "test": "Antifungal activity against Fusarium oxysporum was determined at 0.1 mg/mL concentration"}, "Curvularia lunata [29]": {"system": "Curvularia lunata", "test": "Antifungal activity against Curvularia lunata was measured as mycelial growth at 0.5 mg/mL concentration"}, "Enterococcus faecalis [30]": {"system": "Enterococcus faecalis", "test": "Antibacterial activity against […] was determined at 0.1 mg/mL concentration"}, "Enterococcus faecalis [31]": {"system": "Enterococcus faecalis", "test": "Antibacterial activity against […] was determined at 0.5 mg/mL concentration"}, "Alternaria alternata [32]": {"system": "Alternaria alternata", "test": "Antifungal activity against Alternaria alternata was determined at 0.5 mg/mL concentration"}}, "note": "Values joined by “and” are separate entries in the source; they are usually repeats but may differ in a detail not shown here. Equal values may be shown once."}
{"molecule": "CCOC(=O)c1cn(-c2ccc([N+](=O)[O-])cc2[N+](=O)[O-])nc1-c1ccccc1", "values": [{"measurement": "zone of inhibition at 100 µg/mL", "setting": "Enterococcus faecalis [1]", "result": 74, "unit": "mm"}, {"measurement": "Inhibition Zone", "setting": "[2]", "result": "4.3 cm and 7.2 cm"}, {"measurement": "zone of inhibition at 100 µg/mL", "setting": "[2]; Escherichia coli", "result": 39, "unit": "mm"}, {"measurement": "Mycelial growth", "setting": "Fusarium oxysporum [3]", "result": 3, "unit": "cm"}, {"measurement": "inhibition at 500 µg/mL", "setting": "Fusarium oxysporum [4]", "result": 66.7, "unit": "%"}, {"measurement": "inhibition at 500 µg/mL", "setting": "Pseudomonas aeruginosa [5]", "result": 24.4, "unit": "%"}, {"measurement": "inhibition at 500 µg/mL", "setting": "Staphylococcus aureus [6]", "result": 84.4, "unit": "%"}, {"measurement": "inhibition at 500 µg/mL", "setting": "Thanatephorus cucumeris [7]", "result": 26.6, "unit": "%"}, {"measurement": "inhibition at 500 µg/mL", "setting": "Escherichia coli [8]", "result": 80, "unit": "%"}, {"measurement": "inhibition at 100 µg/mL", "setting": "Pseudomonas aeruginosa [9]", "result": 20, "unit": "%"}, {"measurement": "Inhibition Zone", "setting": "Pseudomonas aeruginosa [10]", "result": 2.2, "unit": "cm"}, {"measurement": "zone of inhibition at 100 µg/mL", "setting": "Pseudomonas aeruginosa [10]; Pseudomonas aeruginosa", "result": 18, "unit": "mm"}, {"measurement": "Inhibition Zone", "setting": "Staphylococcus aureus [11]", "result": "7.6 cm and 3.6 cm"}, {"measurement": "inhibition at 100 µg/mL", "setting": "[12]", "result": 37.8, "unit": "%"}, {"measurement": "inhibition at 100 µg/mL", "setting": "Alternaria alternata [13]", "result": 38.9, "unit": "%"}, {"measurement": "inhibition at 100 µg/mL", "setting": "Thanatephorus cucumeris [14]", "result": 11.1, "unit": "%"}, {"measurement": "inhibition at 100 µg/mL", "setting": "Escherichia coli [15]", "result": 43.3, "unit": "%"}, {"measurement": "inhibition at 100 µg/mL", "setting": "Staphylococcus aureus [16]", "result": 40, "unit": "%"}, {"measurement": "Mycelial growth", "setting": "Alternaria alternata [17]", "result": 3.8, "unit": "cm"}, {"measurement": "Mycelial growth", "setting": "[18]", "result": 4.4, "unit": "cm"}, {"measurement": "Mycelial growth", "setting": "Thanatephorus cucumeris [19]", "result": 6.6, "unit": "cm"}, {"measurement": "Mycelial growth", "setting": "Curvularia lunata [20]", "result": 5.6, "unit": "cm"}, {"measurement": "Mycelial growth", "setting": "[21]", "result": 5.6, "unit": "cm"}, {"measurement": "inhibition at 100 µg/mL", "setting": "Curvularia lunata [22]", "result": 37.8, "unit": "%"}, {"measurement": "Mycelial growth", "setting": "Alternaria alternata [23]", "result": 5.5, "unit": "cm"}, {"measurement": "Mycelial growth", "setting": "Thanatephorus cucumeris [24]", "result": 8, "unit": "cm"}, {"measurement": "inhibition at 500 µg/mL", "setting": "[25]", "result": 51.1, "unit": "%"}, {"measurement": "inhibition at 500 µg/mL", "setting": "Curvularia lunata [26]", "result": 57.8, "unit": "%"}, {"measurement": "Mycelial growth", "setting": "Fusarium oxysporum [27]", "result": 5.3, "unit": "cm"}, {"measurement": "inhibition at 100 µg/mL", "setting": "Fusarium oxysporum [28]", "result": 41.1, "unit": "%"}, {"measurement": "Mycelial growth", "setting": "Curvularia lunata [29]", "result": 3.8, "unit": "cm"}, {"measurement": "inhibition at 100 µg/mL", "setting": "Enterococcus faecalis [30]", "result": 47.8, "unit": "%"}, {"measurement": "inhibition at 500 µg/mL", "setting": "Enterococcus faecalis [31]", "result": 82.2, "unit": "%"}, {"measurement": "inhibition at 500 µg/mL", "setting": "Alternaria alternata [32]", "result": 57.8, "unit": "%"}]}
